Legend:
[1] = test system: skeletal muscle mitochondria; experiment: Mitochondrial membrane potential (ΔΨm, TMRM) powered by glutamate plus malate; format: biochemical, rat; settings: for ΔΨm with Glu + Mal + Nig (% change at 80 μM) / ΔΨm with Glu + Mal (% change at 80 μM): 5 mM glutamate, 5 mM malate; for ΔΨm with Glu + Mal + Nig (% change at 80 μM): with nigericin; for ΔΨm with Glu + Mal (% change at 80 μM): without nigericin
[2] = test system: skeletal muscle mitochondria; experiment: Mitochondrial membrane potential (ΔΨm, TMRM) powered by glycerol phosphate; format: biochemical, rat; settings: 80 μM; 16.7 mM glycerol phosphate, 4 µM rotenone, nigericin
[3] = test system: ubiquinone-binding site of complex I (site IQ); experiment: Site-specific H2O2 production from site IQ in skeletal muscle mitochondria; format: biochemical, rat; settings: 5 mM succinate;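 also: H2O2 from superoxide detected by Amplex UltraRed fluorescence with added superoxide dismutase and horseradish peroxidase, endpoint read 30–40 min after substrate addition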
[4] = target: T1, outer ubiquinone-binding site of complex III (site IIIQo) (Rattus norvegicus, UniProt P00159+P20788); experiment: Site-specific H2O2 production from site IIIQo in skeletal muscle mitochondria; format: biochemical; settings: primary screen, ∼2.5 µM, average of duplicates; 5 mM succinate
T1 construct: from tissue; host or cells: skeletal muscle mitochondria
Experimental: (§1) Superoxide was measured as H2O2 after dismutation by endogenous or exogenous superoxide dismutase. Rates of total superoxide/H2O2 production were measured fluorimetrically using Amplex UltraRed in the presence of exogenous superoxide dismutase and horseradish peroxidase in a Varian Cary Eclipse fluorimeter as previously described. Rates of production from specific sites were determined as previously described using the following eight conditions: flavin mononucleotide site of complex I (site IF) plus matrix NAD-linked dehydrogenases (collectively "site IF/DH") with 5 mM glutamate, 5 mM malate, and 4 µM rotenone; ubiquinone-binding site of complex I (site IQ) with either 0.5 or 5 mM succinate; flavin site of complex II (site IIF) with either 15 µM palmitoylcarnitine, 2.5 µM antimycin A, and 2 µM myxothiazol or 0.5 mM succinate, 4 µM rotenone, 2.5 µM antimycin A, and 2 µM myxothiazol, [31]; mGPDH with 1.7 mM glycerol phosphate, 4 µM rotenone, 2.5 µM antimycin A, 2 µM myxothiazol, 1 mM malonate, and 250 nM free calcium; outer ubiquinone-binding site of complex III (site IIIQo) with either 0.5 or 5 mM succinate, 4 µM rotenone and 2.5 µM antimycin A [32]. Candidate small-molecule inhibitors were added prior to the start of measurements and H2O2 calibration curves were performed in the presence of tested compounds.
(§2) 3,200 compounds were tested initially at 2.5 µM (0.025% DMSO final) in duplicate on different plates against a panel of five distinct assays of site-specific superoxide/H2O2 production as described in the previous section with minor changes. […] Endpoint fluorescence was measured on a Perkin Elmer Victor V3 fluorescent plate reader. The fluorescence intensity of each well was normalized as % change from the average of eight DMSO controls on the same plate. Duplicate wells of each of four modulators of mitochondrial metabolism known to inhibit specific sites of superoxide/H2O2 production were included on each plate as positive controls and the resulting fluorescence levels set as −100% change from DMSO controls. Known inhibitors included 20 mM aspartate (for site IF/DH), 1 µM FCCP (for site IQ), 10 mM malonate (for site IIF), and 2 µM myxothiazol (for site IIIQo). The background fluorescence of the FCCP wells in the site IQ assay was used to normalize mGPDH plates run in parallel. To minimize position-dependent effects across each assay plate, Tukey’s two-way median polish was applied to fluorescence values after initial normalization, [36]. Tukey’s polish is an iterative subtraction of the median row and column values from each well’s given row or column. The procedure is repeated until sequential medians for each row and column are zero and positional gradients in fluorescence are eliminated.

mGPDH = target: T2, mGPDH (Rattus norvegicus, UniProt P35571); experiment: Superoxide/H2O2 production by mGPDH in isolated skeletal muscle mitochondria (Amplex UltraRed); format: biochemical; settings: for IC50: Fig. 4 structure/activity microplate assay, 0.08–80 µM, estimated, means of two replicates, read-out: mGPDH H2O2 production IC50; for inhibition at 80 µM: read-out: mGPDH H2O2 production (% change at 80 μM)
T2 construct: Activity of mGPDH in frozen-thawed skeletal muscle mitochondria was measured; from tissue; host or cells: skeletal muscle mitochondria
T2 sequence (P35571 43-727): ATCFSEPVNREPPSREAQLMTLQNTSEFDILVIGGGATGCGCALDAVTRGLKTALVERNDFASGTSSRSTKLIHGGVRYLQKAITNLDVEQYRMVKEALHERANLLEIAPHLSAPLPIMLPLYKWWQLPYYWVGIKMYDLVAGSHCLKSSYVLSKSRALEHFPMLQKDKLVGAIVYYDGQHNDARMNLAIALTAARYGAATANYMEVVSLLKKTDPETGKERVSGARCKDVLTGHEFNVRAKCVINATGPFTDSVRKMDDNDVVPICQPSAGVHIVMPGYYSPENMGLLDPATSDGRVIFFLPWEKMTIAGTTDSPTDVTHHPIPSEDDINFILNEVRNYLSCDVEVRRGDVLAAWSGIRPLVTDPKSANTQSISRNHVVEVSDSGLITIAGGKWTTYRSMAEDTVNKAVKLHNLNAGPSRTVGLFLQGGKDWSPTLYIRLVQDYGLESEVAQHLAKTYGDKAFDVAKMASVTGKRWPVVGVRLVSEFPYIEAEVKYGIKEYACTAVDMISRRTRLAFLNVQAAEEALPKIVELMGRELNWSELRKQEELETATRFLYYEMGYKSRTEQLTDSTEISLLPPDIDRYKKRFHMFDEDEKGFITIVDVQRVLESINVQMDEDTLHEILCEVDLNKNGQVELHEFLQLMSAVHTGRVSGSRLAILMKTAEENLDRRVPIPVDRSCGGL

[5] = target: T3, flavin site of complex II (site IIF) (Rattus norvegicus, UniProt Q920L2); experiment: Site-specific H2O2 production from site IIF in skeletal muscle mitochondria; format: biochemical; settings: primary screen, ∼2.5 µM, average of duplicates; palmitoylcarnitine
T3 construct: from tissue; host or cells: skeletal muscle mitochondria
Experimental: as §1, §2

[6] = test system: flavin mononucleotide site of complex I (site IF) plus matrix NAD-linked dehydrogenases (site IF/DH); experiment: Site-specific H2O2 production from site IF/DH in skeletal muscle mitochondria; format: biochemical, rat; settings: primary screen, ∼2.5 µM, average of duplicates
Experimental: as §1, §2

T3 sequence (Q920L2 35-656): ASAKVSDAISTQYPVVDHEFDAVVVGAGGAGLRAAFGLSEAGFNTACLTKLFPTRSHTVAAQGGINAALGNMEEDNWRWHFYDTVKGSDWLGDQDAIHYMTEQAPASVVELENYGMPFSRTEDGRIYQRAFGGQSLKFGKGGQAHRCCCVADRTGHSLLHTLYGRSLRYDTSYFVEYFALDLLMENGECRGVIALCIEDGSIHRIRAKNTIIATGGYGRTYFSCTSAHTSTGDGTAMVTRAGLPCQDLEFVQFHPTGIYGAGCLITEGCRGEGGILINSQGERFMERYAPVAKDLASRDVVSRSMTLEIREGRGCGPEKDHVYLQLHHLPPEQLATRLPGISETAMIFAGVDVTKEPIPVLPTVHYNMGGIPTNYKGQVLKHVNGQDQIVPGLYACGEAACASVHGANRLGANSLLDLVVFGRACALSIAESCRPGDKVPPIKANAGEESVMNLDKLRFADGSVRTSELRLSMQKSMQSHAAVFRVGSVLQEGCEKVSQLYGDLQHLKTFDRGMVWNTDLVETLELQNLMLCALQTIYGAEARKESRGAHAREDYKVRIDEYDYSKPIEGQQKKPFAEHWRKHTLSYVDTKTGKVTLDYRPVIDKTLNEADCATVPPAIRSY
T3 sequence (P21913 31-282 partner): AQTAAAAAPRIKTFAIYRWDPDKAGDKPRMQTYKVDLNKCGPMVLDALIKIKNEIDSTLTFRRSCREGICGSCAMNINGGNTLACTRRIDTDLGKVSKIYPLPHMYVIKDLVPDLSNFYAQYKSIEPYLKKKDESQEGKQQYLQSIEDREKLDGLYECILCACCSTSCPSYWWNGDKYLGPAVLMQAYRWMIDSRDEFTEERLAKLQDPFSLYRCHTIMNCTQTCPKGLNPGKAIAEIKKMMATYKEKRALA
T3 sequence (Q641Z9 30-169 partner limits assumed): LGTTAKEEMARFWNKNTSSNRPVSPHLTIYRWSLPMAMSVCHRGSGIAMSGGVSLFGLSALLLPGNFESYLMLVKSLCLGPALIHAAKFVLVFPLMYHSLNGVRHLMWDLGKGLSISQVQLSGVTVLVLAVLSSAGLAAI
T3 sequence (Q6PCT8 57-159 partner): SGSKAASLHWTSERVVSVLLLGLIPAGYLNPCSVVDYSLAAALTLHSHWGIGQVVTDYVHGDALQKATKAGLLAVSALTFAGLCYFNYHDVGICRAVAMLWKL

IIIQo (% change from DMSO) [4] [%]	IC50 (mGPDH) [µM]	mGPDH (% change from DMSO) (mGPDH; primary screen, ∼2.5 µM, average of duplicates, 16.7 mM glycerol phosphate, no added calcium) [%]	inhibition at 80 µM (mGPDH) [%]	IIF (% change from DMSO) [5] [%]	lowering of potency versus mGPDH ROS production relative to iGP-1 (mGPDH; ortho- to para- positioning)	SMILES	ΔΨm with Glu + Mal + Nig (% change at 80 μM) [1] [%]	ΔΨm with Glu + Mal (% change at 80 μM) [1] [%]	ΔΨm (% change from DMSO) ([1]; primary screen, ∼2.5 µM, average of duplicates, glutamate and malate) [%]	ΔΨm with GP + Nig (% change at 80 μM) [2] [%]	IQ H2O2 production with 5 mM Suc (% change at 80 μM) [3] [%]	IQ (% change from DMSO) ([3]; primary screen, ∼2.5 µM, average of duplicates) [%]	IF/DH (% change from DMSO) [6] [%]
2.5	20	-12.2	50	2.1	–	O=C(O)CCC(=O)Nc1ccc(-c2nc3ccccc3o2)cc1 [iGP-2]	18	107	0.8	1	-57	0.759	-2.6
–	50	–	44	–	more than 5 fold	O=C(O)CCC(=O)Nc1cccc(-c2nc3ccccc3[nH]2)c1 [iGP-8]	1	3	–	-7	-14	–	–
–	–	–	2	–	–	CCCC(=O)Nc1ccc(-c2nc3cc4ccccc4cc3[nH]2)cc1 [iGP-9]	5	26	–	5	-1	–	–
–	–	–	0	–	–	c1ccc2[nH]c(-c3ccc(-c4nc5ccccc5[nH]4)cc3)nc2c1 [iGP-10]	-78	-58	–	-78	-77	–	–
–	–	–	5	–	–	C=C(C)C(=O)Nc1ccc(-c2nc3ccccc3[nH]2)cc1 [iGP-11]	-1	54	–	1	-54	–	–
–	–	–	28	–	–	CC(=O)Nc1ccc(-c2nc3ccccc3[nH]2)cc1 [iGP-12]	2	10	–	2	-21	–	–
–	80	–	37	–	–	O=C(Nc1ccc(-c2nc3ccccc3[nH]2)cc1)c1ccco1 [iGP-13]	10	23	–	13	-82	–	–
–	–	–	-11	–	–	CCOc1ccc(C(=O)Nc2ccc(-c3nc4ccccc4[nH]3)cc2)cc1 [iGP-15]	-42	10	–	-25	-15	–	–
–	–	–	7	–	–	O=C(Nc1ccc(-c2nc3ccccc3[nH]2)cc1)C1CC1 [iGP-16]	1	4	–	2	-24	–	–
–	–	–	-6	–	–	CCCCCCNC(=O)CCC(=O)O [iGP-17]	-1	-1	–	0	-1	–	–
–	–	–	-2	–	–	O=C(O)CCC(=O)Nc1ccc(Cl)cc1 [iGP-18]	-3	-9	–	-1	6	–	–
–	–	–	1	–	–	Cc1ccc(NC(=O)CCC(=O)O)cc1 [iGP-19]	-2	-8	–	-2	7	–	–
–	–	–	20	–	–	COC(=O)CCC(=O)Nc1ccc(C)cc1 [iGP-20]	-1	-3	–	0	-8	–	–

Source: PMC3933693, “Novel Inhibitors of Mitochondrial sn-Glycerol 3-phosphate Dehydrogenase” (PLoS ONE, 2014)
